Laboratory results from PubChem BioAssay (NCI).
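Protocol summary: plate cells (96-well), add compound at 5 concentrations, incubate 48 h, interpolate endpoints linearly. TGI denotes the concentration required for complete inhibition of growth.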

How the values were obtained:
Experiment in all cases: NCI tumour cell line growth inhibition, 48 h
CCRF-CEM leukemia = tested on: CCRF-CEM leukemia
786-0 renal = tested on: 786-0 renal
OVCAR-3 ovarian = tested on: OVCAR-3 ovarian
HL-60(TB) leukemia = tested on: HL-60(TB) leukemia
SNB-19 CNS = tested on: SNB-19 CNS
T-47D breast = tested on: T-47D breast
MOLT-4 leukemia = tested on: MOLT-4 leukemia
HCT-15 colon = tested on: HCT-15 colon
SK-OV-3 ovarian = tested on: SK-OV-3 ovarian
SR leukemia = tested on: SR leukemia
UACC-257 melanoma = tested on: UACC-257 melanoma
NCI-H23 lung = tested on: NCI-H23 lung
K-562 leukemia = tested on: K-562 leukemia
SF-295 CNS = tested on: SF-295 CNS
UACC-62 melanoma = tested on: UACC-62 melanoma
CAKI-1 renal = tested on: CAKI-1 renal
HOP-62 NSCLC = tested on: HOP-62 NSCLC
HS 578T breast = tested on: HS 578T breast
UO-31 renal = tested on: UO-31 renal
SW-620 colon = tested on: SW-620 colon
NCI-H226 lung = tested on: NCI-H226 lung
HT29 colon = tested on: HT29 colon
HCC-2998 colon = tested on: HCC-2998 colon
SF-268 CNS = tested on: SF-268 CNS
SNB-75 CNS = tested on: SNB-75 CNS
HOP-92 NSCLC = tested on: HOP-92 NSCLC
OVCAR-4 ovarian = tested on: OVCAR-4 ovarian
PC-3 prostate = tested on: PC-3 prostate
RXF 393 renal = tested on: RXF 393 renal
OVCAR-8 ovarian = tested on: OVCAR-8 ovarian
RPMI-8226 leukemia = tested on: RPMI-8226 leukemia
A549 NSCLC = tested on: A549 NSCLC
MDA-MB-435 = tested on: MDA-MB-435
MCF7 breast = tested on: MCF7 breast
ACHN renal = tested on: ACHN renal
OVCAR-5 ovarian = tested on: OVCAR-5 ovarian
LOX IMVI melanoma = tested on: LOX IMVI melanoma
A498 renal = tested on: A498 renal
COLO 205 colon = tested on: COLO 205 colon
HCT-116 colon = tested on: HCT-116 colon
NCI-H460 lung = tested on: NCI-H460 lung
KM12 colon = tested on: KM12 colon
SK-MEL-2 melanoma = tested on: SK-MEL-2 melanoma
DU-145 prostate = tested on: DU-145 prostate
EKVX NSCLC = tested on: EKVX NSCLC
BT-549 breast = tested on: BT-549 breast
SN12C renal = tested on: SN12C renal
IGROV1 ovarian = tested on: IGROV1 ovarian
M14 melanoma = tested on: M14 melanoma
MDA-N = tested on: MDA-N
NCI-H522 lung = tested on: NCI-H522 lung
SK-MEL-5 melanoma = tested on: SK-MEL-5 melanoma
NCI/ADR-RES ovarian = tested on: NCI/ADR-RES ovarian
MALME-3M melanoma = tested on: MALME-3M melanoma
SK-MEL-28 melanoma = tested on: SK-MEL-28 melanoma
SF-539 CNS = tested on: SF-539 CNS
TK-10 renal = tested on: TK-10 renal
MDA-MB-231 breast = tested on: MDA-MB-231 breast
U251 CNS = tested on: U251 CNS

COc1ccc(C)cc1Nc1nnc(-c2ccccc2N)s1
TGI (CCRF-CEM leukemia): > 100 µM
TGI (786-0 renal): > 100 µM
TGI (OVCAR-3 ovarian): > 100 µM
TGI (HL-60(TB) leukemia): 73 µM
TGI (SNB-19 CNS): > 100 µM
TGI (T-47D breast): > 100 µM
TGI (MOLT-4 leukemia): 15 µM
TGI (HCT-15 colon): > 100 µM
TGI (SK-OV-3 ovarian): > 100 µM
TGI (SR leukemia): 46.7 µM
TGI (UACC-257 melanoma): > 100 µM
TGI (NCI-H23 lung): > 100 µM
TGI (K-562 leukemia): > 100 µM
TGI (SF-295 CNS): > 100 µM
TGI (UACC-62 melanoma): > 100 µM
TGI (CAKI-1 renal): > 100 µM
TGI (HOP-62 NSCLC): > 100 µM
TGI (HS 578T breast): > 100 µM
TGI (UO-31 renal): > 100 µM
TGI (SW-620 colon): > 100 µM
TGI (NCI-H226 lung): > 100 µM
TGI (HT29 colon): > 100 µM
TGI (HCC-2998 colon): > 100 µM
TGI (SF-268 CNS): > 100 µM
TGI (SNB-75 CNS): > 100 µM
TGI (HOP-92 NSCLC): > 100 µM
TGI (OVCAR-4 ovarian): > 100 µM
TGI (PC-3 prostate): > 100 µM
TGI (RXF 393 renal): > 100 µM
TGI (OVCAR-8 ovarian): > 100 µM
TGI (RPMI-8226 leukemia): 53.4 µM
TGI (A549 NSCLC): > 100 µM
TGI (MDA-MB-435): > 100 µM
TGI (MCF7 breast): > 100 µM
TGI (ACHN renal): > 100 µM
TGI (OVCAR-5 ovarian): > 100 µM
TGI (LOX IMVI melanoma): > 100 µM
TGI (A498 renal): > 100 µM
TGI (COLO 205 colon): > 100 µM
TGI (HCT-116 colon): > 100 µM
TGI (NCI-H460 lung): > 100 µM
TGI (KM12 colon): > 100 µM
TGI (SK-MEL-2 melanoma): 52.3 µM
TGI (DU-145 prostate): > 100 µM
TGI (EKVX NSCLC): 90.5 µM
TGI (BT-549 breast): > 100 µM
TGI (SN12C renal): > 100 µM
TGI (IGROV1 ovarian): > 100 µM
TGI (M14 melanoma): > 100 µM
TGI (MDA-N): > 100 µM
TGI (NCI-H522 lung): 58.7 µM
TGI (SK-MEL-5 melanoma): 29.4 µM
TGI (NCI/ADR-RES ovarian): > 100 µM
TGI (MALME-3M melanoma): > 100 µM
TGI (SK-MEL-28 melanoma): > 100 µM
TGI (SF-539 CNS): > 100 µM

COc1ccc(/C=C2\S/C(=N/Nc3nc(-c4ccccc4)cs3)NC2=O)cc1OC
TGI (CCRF-CEM leukemia): 22.3 µM
TGI (786-0 renal): 93.4 µM
TGI (OVCAR-3 ovarian): 55.8 µM
TGI (HL-60(TB) leukemia): 22 µM
TGI (TK-10 renal): 59.4 µM
TGI (SNB-19 CNS): 89.9 µM
TGI (MOLT-4 leukemia): 20.6 µM
TGI (HCT-15 colon): 69 µM
TGI (SK-OV-3 ovarian): 63.7 µM
TGI (UACC-257 melanoma): > 100 µM
TGI (NCI-H23 lung): 69.4 µM
TGI (SF-295 CNS): 86.3 µM
TGI (UACC-62 melanoma): 74.5 µM
TGI (CAKI-1 renal): > 100 µM
TGI (HOP-62 NSCLC): > 100 µM
TGI (HS 578T breast): 83.3 µM
TGI (UO-31 renal): 51.7 µM
TGI (SW-620 colon): > 100 µM
TGI (MDA-MB-231 breast): 75.7 µM
TGI (HCC-2998 colon): 64.2 µM
TGI (SF-268 CNS): > 100 µM
TGI (SNB-75 CNS): 64.4 µM
TGI (HOP-92 NSCLC): 35.2 µM
TGI (OVCAR-4 ovarian): 98.1 µM
TGI (PC-3 prostate): 52.6 µM
TGI (RXF 393 renal): 52 µM
TGI (OVCAR-8 ovarian): 47.5 µM
TGI (A549 NSCLC): > 100 µM
TGI (MDA-MB-435): 75 µM
TGI (MCF7 breast): > 100 µM
TGI (ACHN renal): > 100 µM
TGI (OVCAR-5 ovarian): > 100 µM
TGI (LOX IMVI melanoma): 65.6 µM
TGI (COLO 205 colon): > 100 µM
TGI (U251 CNS): 87.2 µM
TGI (HCT-116 colon): 41.6 µM
TGI (NCI-H460 lung): > 100 µM
TGI (KM12 colon): 82.2 µM
TGI (SK-MEL-2 melanoma): 47.5 µM
TGI (DU-145 prostate): > 100 µM
TGI (EKVX NSCLC): 98.4 µM
TGI (BT-549 breast): 81.3 µM
TGI (SN12C renal): > 100 µM
TGI (IGROV1 ovarian): 44.2 µM
TGI (M14 melanoma): > 100 µM
TGI (MDA-N): 33.7 µM
TGI (NCI-H522 lung): 47.4 µM
TGI (SK-MEL-5 melanoma): 31.2 µM
TGI (NCI/ADR-RES ovarian): 49.8 µM
TGI (SK-MEL-28 melanoma): 69.9 µM
TGI (SF-539 CNS): 71.4 µM
